Data: US11389438B2 (CHDI Foundation, Inc., priority 2019, dated 2022)
Counter-ions that a name gives are not always drawn.

target: pre-formed polyQ46 or Exon1-polyQ46 aggregates (mHTT) (Homo sapiens, UniProt P42858, INS38QQQQQQQQQQQQQQQQQQQQQQQQQ); assay: Q46_RBA radioligand binding assay (displacement of [3H]-radioligand)
Method: Binding of W to mHTT. A radioligand binding assay was developed to screen for compounds which can efficiently displace a radioligand detailed elsewhere (see, e.g., U.S. Patent Publication No. from US 2017/0292150) pre-formed polyQ46 or Exon1-polyQ46 aggregates (Q46_RBA).
Aggregation of polyQ peptides is initiated by cleavage of the tag from a GST-polyQ46 or from a MBP-Exon1-polyQ46 fusion protein. The pre-formed aggregates are then incubated with compounds which compete with the [^3H]-radiolabelled ligand for binding to the aggregates. The readout is a scintillation based MicroBeta measurement of radioligand bound to aggregates. The activity was indicated as: +++, <100 nM; ++, 100-500 nM, +, >500 nM.

Q: CC(C)C[C@H](NC(=O)[C@@H](O)[C@H](N)Cc1ccccc1)C(=O)NCCOCCOCCOc1ccc(NC(=O)c2ccn3c(n2)nc2ccccc23)cn1 [Compound 59, N-{6-[2-(2-{2-[(2S)-2-[(2S,3R)-3-amino-2-hydroxy-4-phenylbutanamido]-4-methylpentanamido]ethoxy}ethoxy)ethoxy]pyridin-3-yl}-1,8,10-triazatricyclo[7.4.0.0^2,7]trideca-2,4,6,8,10,12-hexaene-11-carboxamide] was tested. Which IC50 did it give?
A: The IC50 was < 100 nM.

Q: Which IC50 does the source give for CC(C)C[C@H](NC(=O)CCCc1ccccc1)C(=O)NCCOCCOCCOc1ccc(COc2ccc3oc(-c4ccc(=O)n(C)n4)nc3c2)nc1 [Compound 52, (2S)-4-Methyl-N-{2-[2-(2-{[6-({[2-(1-methyl-6-oxo-1,6-dihydropyridazin-3-yl)-1,3-benzoxazol-5-yl]oxy}methyl)pyridin-3-yl]oxy}ethoxy)ethoxy]ethyl}-2-(4-phenylbutanamido)pentanamide] here?
A: Its IC50 is < 100 nM.

Q: Which IC50 does the source give for CC(C)C[C@H](NC(=O)[C@@H](O)[C@H](N)Cc1ccccc1)C(=O)NCCOCCOCCOc1ccc(C(=O)Nc2ccc3oc(-c4ccc(=O)n(C)n4)nc3c2)nc1 (stereo in doubt) [Compound 13] here?
A: The IC50 was < 100 nM.

Q: With Cc1ncsc1-c1ccc(CNC(=O)[C@H]2C[C@H](O)CN2C(=O)[C@H](NC(=O)COCCOc2ccc(C(=O)Nc3ccc4oc(-c5ccc(=O)n(C)n5)nc4c3)nc2)C(C)(C)C)cc1 [Compound 51, 5-[2-({[(2R)-1-[(2R,4S)-4-Hydroxy-2-({[4-(4-methyl-1,3-thiazol-5-yl)phenyl]methyl}carbamoyl)pyrrolidin-1-yl]-3,3-dimethyl-1-oxobutan-2-yl]carbamoyl}methoxy)ethoxy]-N-[2-(1-methyl-6-oxo-1,6-dihydropyridazin-3-yl)-1,3-benzoxazol-5-yl]pyridine-2-carboxamide] as the molecule, how does the IC50 read?
A: The IC50 was < 100 nM.

Q: How did the IC50 turn out when CNc1c(-c2cn3c(n2)sc2cc(OCCOCCOCCOCCOCC(=O)N[C@H](C(=O)N4C[C@H](O)C[C@H]4C(=O)NCc4ccc(-c5scnc5C)cc4)C(C)(C)C)ccc23)nc2cc(C#N)ccn12 [Compound 4, (2S,4R)-1-((S)-2-(tert-butyl)-17-((2-(7-cyano-3-(methylamino)-imidazo[1,2-a]pyridin-2-yl)benzo[d]imidazo[2,1-b]thiazol-7-yl)oxy)-4-oxo-6,9,12,15-tetraoxa-3-azaheptadecan-1-oyl)-4-hydroxy-N-(4-(4-methylthiazol-5-yl)benzyl)-pyrrolidine-2-carboxamide] was run?
A: Its IC50 is 100 to 500 nM.

Q: With COc1ccc(NC(=O)c2ccnc(N(CCOCCOCCNC(=O)[C@H](CC(C)C)NC(=O)[C@@H](O)[C@H](N)Cc3ccccc3)c3ccccc3)n2)cn1 [Compound 69] as the molecule, how does the IC50 read?
A: The IC50 was > 500 nM.

Q: CNc1c(-c2cn3c(n2)sc2cc(OCCOCCOCCOCCOc4cc(-c5scnc5C)ccc4CNC(=O)[C@@H]4C[C@@H](O)CN4C(=O)[C@H](C(C)C)N4Cc5ccccc5C4=O)ccc23)nc2cc(C#N)ccn12 [Compound 8] was tested. Which IC50 did it give?
A: The IC50 was 100 to 500 nM.

Q: How did the IC50 turn out when CC(C)C[C@H](NC(=O)[C@@H](O)[C@H](N)Cc1ccccc1)C(=O)NCCOCCOCCOCCOc1ccc(C(=O)Nc2ccc3oc(-c4ccc(=O)n(C)n4)nc3c2)nc1 [Compound 14] was run?
A: Its IC50 is < 100 nM.

Q: How did the IC50 turn out when CC(C)C[C@H](NC(=O)[C@@H](O)[C@H](N)Cc1ccccc1)C(=O)NCCOCCOCCOCCOCCOCCOc1ccc(C(=O)Nc2ccc3oc(-c4ccc(=O)n(C)n4)nc3c2)nc1 [Compound 16] was run?
A: The IC50 was < 100 nM.

Q: For CNc1c(-c2cn3c(n2)sc2cc(OCCOCCNc4cccc5c4C(=O)N(C4CCC(=O)NC4=O)C5=O)ccc23)nc2cc(C#N)ccn12 (stereo not drawn) [Compound 9], which IC50 is on record?
A: Its IC50 is < 100 nM.

Q: Which IC50 does the source give for CC(C)C[C@H](NC(=O)[C@@H](O)[C@H](N)Cc1ccccc1)C(=O)NCCOCCOCCNc1ccc(NC(=O)c2ccn3c(n2)nc2ccccc23)cn1 [Compound 60, N-(6-{[2-(2-{2-[(2S)-2-[(2S,3R)-3-azaniumyl-2-hydroxy-4-phenylbutanamido]-4-methylpentanamido]ethoxy}ethoxy)ethyl]amino}pyridin-3-yl)-1,8,10-triazatricyclo[7.4.0.0^2,7]trideca-2,4,6,8,10,12-hexaene-11-carboxamide formate] here?
A: The IC50 was < 100 nM.

Q: How did the IC50 turn out when Cc1ccc2nc(-c3ccc(NC(=O)COCCOCCNC(=O)[C@H](CC(C)C)NC(=O)[C@@H](O)[C@H](N)Cc4ccccc4)cc3)sc2c1 [Compound 66] was run?
A: The IC50 was 100 to 500 nM.

Q: COc1ccc(C(=O)Nc2ccc3oc(-c4ccc(=O)n(CCOCCOCCNC(=O)[C@H](CC(C)C)NC(=O)[C@@H](O)[C@H](N)Cc5ccccc5)n4)nc3c2)nc1 [Compound 50, N-(2-{1-[2-(2-{2-[(2S)-2-[(2S,3R)-3-Amino-2-hydroxy-4-phenylbutanamido]-4-methylpentanamido]ethoxy}ethoxy)ethyl]-6-oxo-1,6-dihydropyridazin-3-yl}-1,3-benzoxazol-5-yl)-5-methoxypyridine-2-carboxamide] was tested. Which IC50 did it give?
A: Its IC50 is < 100 nM.

Q: Which IC50 does the source give for CNc1c(-c2cn3c(n2)sc2cc(OCCOCCOCCOc4cc(-c5scnc5C)ccc4CNC(=O)[C@@H]4C[C@@H](O)CN4C(=O)[C@H](C(C)C)N4Cc5ccccc5C4=O)ccc23)nc2cc(C#N)ccn12 [Compound 7] here?
A: Its IC50 is 100 to 500 nM.

Q: With CNc1c(-c2cn3c(n2)sc2cc(OCCOCCOc4cc(-c5scnc5C)ccc4CNC(=O)[C@@H]4C[C@@H](O)CN4C(=O)[C@H](C(C)C)N4Cc5ccccc5C4=O)ccc23)nc2cc(C#N)ccn12 [Compound 6] as the molecule, how does the IC50 read?
A: Its IC50 is 100 to 500 nM.

Q: With Cc1ccc2nc(-c3ccc(NCCOCCOCCOCCNc4cccc5c4C(=O)N(C4CCC(=O)NC4=O)C5=O)cc3)sc2c1 (stereo not drawn) [Compound 68] as the molecule, how does the IC50 read?
A: The IC50 was 100 to 500 nM.

Q: With Cc1ncsc1-c1ccc(CNC(=O)[C@H]2C[C@H](O)CN2C(=O)[C@H](NC(=O)CCOCCOCCOCCOCCOCCOc2ccc(C(=O)Nc3ccc4oc(-c5ccc(=O)n(C)n5)nc4c3)nc2)C(C)(C)C)cc1 [Compound 41] as the molecule, how does the IC50 read?
A: The IC50 was < 100 nM.

Q: With CNc1c(-c2cn3c(n2)sc2cc(OCCOc4cc(-c5scnc5C)ccc4CNC(=O)[C@@H]4C[C@@H](O)CN4C(=O)[C@H](C(C)C)N4Cc5ccccc5C4=O)ccc23)nc2cc(C#N)ccn12 [Compound 5, (2S,4R)—N-(2-(2-((2-(7-cyano-3-(methylamino)imidazo[1,2-a]pyridin-2-yl)benzo[d]imidazo[2,1-b]thiazol-7-yl)oxy)ethoxy)-4-(4-methylthiazol-5-yl)benzyl)-4-hydroxy-1-((S)-3-methyl-2-(1-oxoisoindolin-2-yl)butanoyl)pyrrolidine-2-carboxamide] as the molecule, how does the IC50 read?
A: Its IC50 is 100 to 500 nM.

Q: Which IC50 does the source give for Cc1ccc2nc(-c3ccc(NCCOCCOCC(=O)N[C@H](C(=O)N4C[C@H](O)C[C@H]4C(=O)NCc4ccc(-c5scnc5C)cc4)C(C)(C)C)cc3)sc2c1 [Compound 64] here?
A: Its IC50 is > 500 nM.

Q: How did the IC50 turn out when Cc1ccc2nc(-c3ccc(NCCOCCOCCNc4cccc5c4C(=O)N(C4CCC(=O)NC4=O)C5=O)cc3)sc2c1 (stereo not drawn) [Compound 65] was run?
A: Its IC50 is 100 to 500 nM.

Q: Cn1nc(-c2nc3cc(NC(=O)c4ccc(OCCOCCNc5cccc6c5C(=O)N(C5CCC(=O)NC5=O)C6=O)cn4)ccc3o2)ccc1=O (stereo not drawn) [Compound 35] was tested. Which IC50 did it give?
A: The IC50 was < 100 nM.

Q: For Cc1ccc2nc(-c3ccc(NCCOCCOCCOc4cc(-c5scnc5C)ccc4CNC(=O)C4C[C@@H](O)CN4C(=O)[C@H](C(C)C)N4Cc5ccccc5C4=O)cc3)sc2c1 (stereo partly drawn) [Compound 67], which IC50 is on record?
A: The IC50 was 100 to 500 nM.

Q: How did the IC50 turn out when Cc1ccc2nc(-c3ccc(NCCOCCOCCOc4cccc5c4C(=O)N(C4CCC(=O)NC4=O)C5=O)cc3)sc2c1 (stereo not drawn) [Compound 63] was run?
A: The IC50 was < 100 nM.

Q: For CC(C)C[C@H](NC(=O)[C@@H](O)[C@H](N)Cc1ccccc1)C(=O)NCCOCCOc1ccc(C(=O)Nc2ccc3oc(-c4ccc(=O)n(C)n4)nc3c2)nc1 [Compound 12], which IC50 is on record?
A: Its IC50 is < 100 nM.
